Patent publication EP0410446A1, “(S)-5-hydroxydecanoic acid and its therapeutic composition” (MOCHIDA PHARMACEUTICAL CO., LTD., priority 1989, dated 1991)
Like-named read-outs stand apart in the source and are kept apart here.

Experiments:
[1] = test system: ATP regulated K⁺ channels; assay: Effect on ATP regulated K⁺ channels in guinea-pig cardiac cells (single channel recording, inside-out patch clamp, opening probability); assay type: cell-based; conditions: for Inhibition rate (%): Dose 3x10⁻⁴ M, single guinea-pig cardiac cells, inside-out patch, opening probability at 0 mV membrane potential
Procedure: According to the method described by Kakei, M., et al., ( J. Physiol., 363 441-462, 1985 ), single cardiac cells were prepared. Guinea-pigs were anesthetized with an intraperitoneally injection of pentobarbital sodium with 30 mg/kg and the chest was opened under artificial respiration. The aorta was cannulated in situ to perfuse the coronary arteries with Tyrode solution (NaCl 136.1, KCl 5.4, CaCl₂ 1.8, MgCl₂ 0.5, NaH₂PO₄ 0.33, glucose 5.5, N-2-hydroxyethylpiperazine-N′-2-ethanesulfonic acid (HEPES) 5.0, each in mM, and the pH was adjusted to 7.4 with NaOH), then the heart was dissected out and mounted on Langendorff apparatus to perfuse. After blood was washed out by Tyrode solution, the heart was perfused with the 100 ml of Ca²⁺-free Tyrode solution and then with Ca²⁺-free Tyrode solution containing 0.17 mg/ml collagenase for 5-20 minutes. Subsequently, the enzyme was washed out from the heart with the 100 ml of KB solution (taurine 10, oxalic acid 10, glutamic acid 80, KCl 25, KH₂PO₄ 10, HEPES 10, glucose 11, ethyleneglycolbis(β-aminoethylether)-N,N′-tetraacetic acid (EGTA) 0.5, each in mM, and the pH was adjusted to 7.4 with KOH) and the heart was stored in KB solution at 4°C for at least 1 hour. Before electrical recording, a part of ventricular muscle was dissected and was shaken in recording chamber (0.7 ml) filled with Tyrode solution to disperse each cells. The method of single channel electrical recording was essentially the same as described by Hamill, A., et al., (Pflugers Arch., 391 85-100, 1981 ). Glass electrodes were made from Pyrex glass capillaries by use of a puller (2 - 10 MΩ) and were heated to polish just before use. An electrode solution was KCl 5.4, NaCl 144.6, CaCl₂ 2, HEPES 5 (each in mM) and the pH was adjusted to 7.4 with NaOH. After dispersed cells sank and adhered to the bottom of recording chamber, high K⁺ solution (KCl 140, MgCl₂ 1.0, KH₂PO₄ 0.5, EGTA 1.0, HEPES 5.0, each in mM, and the pH was adjusted to 7.4 with KOH) was perfused at flow rate of 2 - 3 ml/minute. After established a high seal resistance (5 - 20 GΩ) obtained by attaching an electrode to a cell membrane and applying suction (0 - -50 cm H₂O), a channel current was detected by inside-out configuration by use of a patch clamp amplifier (8900, DAGAN) at a filter setting of 1 KHz. A channel current and a membrane potential were monitored by an oscilloscope and were recorded by a datarecorder. An opening probability, that is a ratio of channel opening period to recording period, were analyzed by using a p-CLAMP (AXON) at 0 mV of a membrane potential. Compounds were dissolved in high K⁺ solution to be perfused.

male ddY mice = assay type: in vivo; conditions: 1 g/kg, five male ddY mice, observed for one week
Source text: Five male ddY mice weighting about 25 g were orally administered once or intraperitoneally injected once with 1 g/kg of sodium (S)-5-hydroxydecanoate.

Row | Compound | Inhibition rate (%) [1] [%] | activity on ATP regulated K⁺ channels (in words) ([1]; summary of table 1, 3x10⁻⁴ M) | Acute toxicity (abnormality, death) (male ddY mice; intraperitoneally injected once) | Acute toxicity (abnormality, death) (male ddY mice; orally administered once) | inhibitory effect on ATP regulated K⁺ channels compared with racemate ([1]; comparison of the values in table 1, 3x10⁻⁴ M)
1 | CCCCCC(O)CCCC(=O)[O-].[Na+] (racemic) [(R,S)-5-HD, Sodium 5-hydroxydecanoate] | 30 | – | – | – | –
2 | CCCCC[C@@H](O)CCCC(=O)[O-].[Na+] [(R)-5-HD, Sodium 5-hydroxydecanoate] | 10 | few activity | – | – | –
3 | CCCCC[C@H](O)CCCC(=O)[O-].[Na+] [(S)-5-HD, sodium (S)-5-hydroxydecanoate] | 69 | – | no abnormality occurred and no animal died | no abnormality occurred and no animal died | about twice as good as racemate
